Source: the NIST ThermoML archive (doi:10.1016/j.tca.2008.12.007)

Assay: xn = mol fraction of the nth substance listed
Conditions: 101 kPa, Liquid, Vibrating tube method

C1CCCNCC1 [azacycloheptane] + O
mass density [kg/m3]
Conditions | 313.15 K | 318.15 K | 323.15 K | 333.15 K | 343.15 K | 348.15 K | 353.15 K
x2 = 0.0199 | – | 860.37 | 855.9 | 846.92 | 837.91 | 833.38 | 828.84
x2 = 0.0395 | – | 861.39 | 856.9 | 847.9 | 838.84 | 834.3 | 829.73
x2 = 0.0821 | – | 863.99 | 859.48 | 850.41 | 841.28 | 836.69 | 832.07
x2 = 0.1198 | – | 866.23 | 861.7 | 852.59 | 843.4 | 838.79 | 834.14
x2 = 0.1594 | – | 868.63 | 864.08 | 854.93 | 845.7 | 841.06 | 836.38
x2 = 0.1994 | – | 871.37 | 866.81 | 857.62 | 848.34 | 843.67 | 838.95
x2 = 0.2498 | – | 874.79 | 870.21 | 860.98 | 851.65 | 846.94 | 842.2
x2 = 0.3 | 882.83 | 878.26 | 873.67 | 864.4 | 855.03 | 850.31 | 845.54
x2 = 0.3499 | 886.76 | 882.18 | 877.58 | 868.28 | 858.87 | 854.12 | 849.32
x2 = 0.4 | 890.72 | 886.14 | 881.52 | 872.21 | 862.76 | 857.99 | 853.18
x2 = 0.4529 | 895.39 | 890.8 | 886.19 | 876.87 | 867.39 | 862.6 | 857.76
x2 = 0.5008 | 899.86 | 895.29 | 890.68 | 881.36 | 871.87 | 867.08 | 862.24
x2 = 0.5041 | 899.86 | 895.28 | 890.68 | 881.35 | 871.87 | 867.07 | 862.22
x2 = 0.5508 | 904.48 | 899.93 | 895.33 | 886.03 | 876.55 | 871.76 | 866.92
x2 = 0.5992 | 909.37 | 904.85 | 900.28 | 891.02 | 881.58 | 876.78 | 871.95
x2 = 0.65 | 915.05 | 910.58 | 906.06 | 896.87 | 887.5 | 882.74 | 877.92
x2 = 0.699 | 920.96 | 916.55 | 912.1 | 903.03 | 893.76 | 889.04 | 884.27
x2 = 0.7496 | 927.77 | 923.47 | 919.11 | 910.24 | 901.13 | 896.49 | 891.79
x2 = 0.7994 | 935.59 | 931.44 | 927.23 | 918.61 | 909.74 | 905.21 | 900.62
x2 = 0.8398 | 942.92 | 938.93 | 934.88 | 926.57 | 917.97 | 913.57 | 909.09
x2 = 0.8799 | 951.63 | 947.87 | 944.03 | 936.13 | 927.91 | 923.42 | 918.78
x2 = 0.92 | 962.53 | 959.11 | 955.59 | 948.28 | 942.9 | 938.07 | 933.73
x2 = 0.9599 | 976.48 | 973.55 | 970.5 | 964.06 | 958.32 | 954.48 | –
x2 = 0.96 | 976.54 | 973.61 | 970.56 | 964.12 | 958.4 | 954.96 | –
x2 = 0.9699 | 980.66 | 977.9 | 975.01 | 968.88 | 963.25 | – | –
x2 = 0.98 | 985.06 | 982.5 | 979.8 | 974.02 | 967.74 | 964.39 | 961.1
